# In patent US20240124483A1, “Methods for the Treatment of Fibrotic Disease” (SHY Therapeutics, LLC, priority 2021, published 2024):
# Where two headings read alike, the source gives them in different places.
# Assays:
# MAPK p38 = MAPK p38 Activation Assay in Panc-1 (western blot); format: cell-based, Human; design: key: Y = yes; N = No; details: at 10 μM
# Protocol: (§1) Cell lines: Human tumor-derived pancreatic cancer cell line Panc-1 and mouse muscle myoblast C2C12 were purchased from American Type Culture Collection and grown in complete DMEM-High Glucose, supplemented with penicillin (100 U/mL), streptomycin (100 μg/mL), and 10% heat-inactivated FBS at 37° C. in a humidified incubator with 5% CO2.
# (§2) Method: Cells were plated at 350000 cells/well density in a 12-well plate, allowed 3 hours to adhere to the plate, then starved in the appropriate medium in the presence of 0.5% FBS overnight. The small molecules to be tested were added to the cells in the final concentration of 10 μM in the presence of 0.3% DMSO for 3 hours incubation at 37° C. For IC50 value determination, serial dilutions of compounds were added to cells under the same conditions. Next, Panc-1 cells were stimulated with 10 ng/ml TGF-b1 for 1 hour, and C2C12 cells were stimulated with 10 ng/ml TGF-b1 for 20 minutes (recombinant human TGF-b1, R&D Systems). After stimulation cells were lysed with lysis buffer containing 1% Triton X-100, EDTA, and Halt™ Protease & Phosphatase Inhibitor Cocktail (Thermo Scientific). Protein concentration was assessed by BCA protein assay (Thermo Scientific). Phosphorylation level of MAPK p38 was determined by western blot.
# (§3) Western blot protocol: Equal amounts of protein (15-50 μg) were separated by SDS-PAGE and transferred to nitrocellulose membranes (Invitrogen by Thermo Fisher Scientific). The membrane was stained with Ponceau S Stain (Boston BioProducts) to verify uniform protein loading. Membranes were blocked with 10% milk and phosphorylation levels of Smad2/Smad3 were assessed by incubating overnight at 4° C. with the following antibody: Phospho-p38 MAPK (Thr180/Tyr182), from Cell Signaling Technology. Then the membranes were incubated with HRP-conjugated secondary antibody (Jackson Immunoresearch, West Grove, PA). Bands were incubated in Amersham ECL Prime Western Blotting Detection Reagent (GE Healthcare) and visualized using the ChemiDoc MP imaging system (Bio-Rad).
# JNK = JNK Activation Assay in Panc-1 (western blot); format: cell-based, Human; design: key: Y = yes; N = No; details: at 10 μM
# Protocol: as §1
# as §2, with “JNK” for “MAPK p38”
# as §3, with “Smad2, Smad3, INK and p38” for “Smad2/Smad3”, “Phospho-SAPK/JNK (Thr183/Tyr185),” for “Phospho-p38 MAPK (Thr180/Tyr182),”
# KRas wild type = KRas wild type (Homo sapiens (Human), UniProt P01116); assay: Ras GTP Binding Domain Inhibition Assay, KRas wild type
# Protocol: A Ras Superfamily Activity Assay (as disclosed in International Application No. PCT/US2018/038613, filed Jun. 20, 2018, which is incorporated by reference in its entirety) was used as a specific assay to evaluate compounds against the following for the following Ras Superfamily proteins: KRas wild type, KRas Q61H mutant, KRas G12C mutant, KRas G12D mutant, Rac-1, and Rho-A.
# Buffer-I: • 25 mM Tris-HCl, pH 7.4 • 27 mM KCl • 137 mM NaCl • 1 mM MgCl2 • 1 mM DTT
# Buffer-II: • 50 mM Tris-HCl, pH 7.0 • 1 mM MgCl2 • 1 mM DTT
# The small GTPases proteins: KRas wild type. KRas Q61H mutant, KRas G12C mutant, KRas G12D mutants, Rac-1, and Rho-A were expressed as His-tagged proteins. In addition, the Guanosine nucleotide Exchange Factor (GEF) Sos protein (residues 556-1049) was expressed as a His-tagged protein. In cells, the guanine nucleotide exchange factor Sos protein promotes activation of Ras proteins by stimulating an exchange of GDP for GTP. The inclusion of Sos to the Ras GTP binding domain inhibition assay may be considered as an alternative representation of physiological cellular conditions for evaluating the inhibitory activity of some of the tested small molecules.
# For the assay, all purified small GTPases proteins were diluted in Buffer-I or Buffer-II to a final concentration of 10-30 μg/mL. 200 μL of each diluted protein was added to a nickel-coated 96-well plate and incubated overnight at 4° C. Then the protein solution was discarded and 200 μL of Buffer-I or Buffer-II was added to each well in the presence of 1% DMSO. Compounds to be tested were added to the protein-coated wells at final concentration of 20 μM, and incubated for 3 hours at room temperature with and without 10-30 μg/mL of Sos added to the final hour of the incubation. When performing IC50 measurements a serial dilution of all tested concentrations was added. Then Cy3-GTP or Cy5-GTP was added to each well to a final concentration of 100 nM. The labeled GTP was incubated for 45 minutes at room temperature. Following GTP incubation, wells were washed 3× in Buffer-I or Buffer-II and 200 μL of Buffer-I or Buffer-II was added to each well. Following washes, the amount of bound labeled-GTP was measured using a SpectraMax M3 (Molecular Devices).
# [1] = + SOS, read-out: KRas wild type + SOS: % inh.
# [2] = without SOS, read-out: KRas wild type: % inh.
# Chain of KRas wild type (P01116 other isoform, or with tags, fused parts or gaps): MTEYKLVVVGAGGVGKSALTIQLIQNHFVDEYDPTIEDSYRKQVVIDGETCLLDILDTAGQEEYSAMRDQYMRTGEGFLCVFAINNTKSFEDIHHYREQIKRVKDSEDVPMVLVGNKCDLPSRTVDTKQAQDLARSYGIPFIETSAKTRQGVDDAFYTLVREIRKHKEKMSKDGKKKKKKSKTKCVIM
inhibition at 20 µM (KRas wild type; [1]) [%],inhibition at 20 µM (KRas wild type; [2]) [%],Structure (SMILES),Activation of MAPK p38 in PANC-1 (MAPK p38),Activation of JNK in PANC-1 (JNK)
76 to 100,26 to 45,"CO[C@H]1CC[C@@H](Nc2nc(-c3nccn3C)nc3sc(-c4ccn(C)n4)c(-c4ccccc4)c23)C1 (racemic) [Compound 5, rac-N-((1R,3S)-3-Methoxycyclopentyl)-2-(1-methyl-1H-imidazol-2-yl)-6-(1-methyl-1H-pyrazol-3-yl)-5-phenylthieno[2,3-d]pyrimidin-4-amine]",Y,Y
76 to 100,76 to 100,"COCCO[C@H]1CC[C@@H](Nc2nc(-c3nccn3C)nc3sc(-c4ccn(C(C)C)n4)c(C)c23)C1 (racemic) [Compound 20, rac-6-(1-Isopropyl-1H-pyrazol-3-yl)-N-((1R,3S)-3-(2-methoxyethoxy)cyclopentyl)-5-methyl-2-(1-methyl-1H-imidazol-2-yl)thieno[2,3-d]pyrimidin-4-amine]",Y,Y
76 to 100,76 to 100,"Cc1c(-c2ccn(C(C)C)n2)sc2nc(-c3nccn3C)nc(NCC3CCCO3)c12 (racemic) [Compound 26, rac-6-(1-Isopropyl-1H-pyrazol-3-yl)-5-methyl-2-(1-methyl-1H-imidazol-2-yl)-N-((tetrahydrofuran-2-yl)methyl)thieno[2,3-d]pyrimidin-4-amine]",Y,Y
76 to 100,46 to 75,"COCCn1ccc(-c2sc3nc(-c4nccn4C)nc(NC[C@H]4CC[C@H]4COC)c3c2C)n1 (racemic) [Compound 38, rac-6-(1-(2-Methoxyethyl)-1H-pyrazol-3-yl)-N-(((1S,2R)-2-(methoxymethyl)cyclobutyl)methyl)-5-methyl-2-(1-methyl-1H-imidazol-2-yl)thieno[2,3-d]pyrimidin-4-amine]",Y,Y
76 to 100,76 to 100,"COCCn1ccc(-c2sc3nc(-c4nccn4C)nc(N[C@@H]4CC[C@H](OC)C4)c3c2C)n1 (racemic) [Compound 39, rac-N-((1R,3S)-3-Methoxycyclopentyl)-6-(1-(2-methoxyethyl)-1H-pyrazol-3-yl)-5-methyl-2-(1-methyl-1H-imidazol-2-yl)thieno[2,3-d]pyrimidin-4-amine]",Y,Y

# The remaining lines, values behind:
Structure (SMILES),inhibition at 20 µM (KRas wild type; [1]) [%],inhibition at 20 µM (KRas wild type; [2]) [%],Activation of MAPK p38 in PANC-1 (MAPK p38),Activation of JNK in PANC-1 (JNK)
"COc1cccc(-c2sc3nc(-c4nccn4C)nc(NC4CCC(OC)C4)c3c2C)c1F (racemic) [Compound 10, rac-6-(2-Fluoro-3-methoxyphenyl)-N-((1R,3S)-3-methoxycyclopentyl)-5-methyl-2-(1-methyl-1H-imidazol-2-yl)thieno[2,3-d]pyrimidin-4-amine and rac-6-(2-Fluoro-3-methoxyphenyl)-N-((1R,3R)-3-methoxycyclopentyl)-5-methyl-2-(1-methyl-1H-imidazol-2-yl)thieno[2,3-d]pyrimidin-4-amine]",46 to 75,46 to 75,Y,Y
"CO[C@H]1CC[C@@H](Nc2nc(-c3nccn3C)nc3sc(-c4ccn(C(C)C)n4)c(C)c23)C1 (racemic) [Compound 12, rac-6-(1-Isopropyl-1H-pyrazol-3-yl)-N-((1R,3S)-3-methoxycyclopentyl)-5-methyl-2-(1-methyl-1H-imidazol-2-yl)thieno[2,3-d]pyrimidin-4-amine]",76 to 100,76 to 100,Y,Y
"COC1CCCN(c2nc(-c3nccn3C)nc3sc(-c4ccn(C(C)C)n4)c(C)c23)C1 (racemic) [Compound 14, rac-6-(1-Isopropyl-1H-pyrazol-3-yl)-4-(3-methoxypiperidin-1-yl)-5-methyl-2-(1-methyl-1H-imidazol-2-yl)thieno[2,3-d]pyrimidine]",76 to 100,0,Y,Y
"COCC1CN(c2nc(-c3nccn3C)nc3sc(-c4ccn(C(C)C)n4)c(C)c23)CCO1 (racemic) [Compound 15, 4-(6-(1-Isopropyl-1H-pyrazol-3-yl)-5-methyl-2-(1-methyl-1H-imidazol-2-yl)thieno[2,3-d]pyrimidin-4-yl)-2-(methoxymethyl)morpholine]",76 to 100,76 to 100,Y,Y
"Cc1c(-c2ccn(C(C)C)n2)sc2nc(-c3nccn3C)nc(NCC3COCCN3C)c12 (racemic) [Compound 24, rac-6-(1-Isopropyl-1H-pyrazol-3-yl)-5-methyl-2-(1-methyl-1H-imidazol-2-yl)-N-((4-methylmorpholin-3-yl)methyl)thieno[2,3-d]pyrimidin-4-amine]",76 to 100,26 to 45,Y,Y
"Cc1c(-c2ccn(C(C)C)n2)sc2nc(-c3nccn3C)nc(NCC3CN(C)CCO3)c12 (racemic) [Compound 25, rac-6-(1-Isopropyl-1H-pyrazol-3-yl)-5-methyl-2-(1-methyl-1H-imidazol-2-yl)-N-((4-methylmorpholin-2-yl)methyl)thieno[2,3-d]pyrimidin-4-amine]",76 to 100,76 to 100,Y,Y
"COCC1(OC)CCN(c2nc(-c3nccn3C)nc3sc(-c4ccn(C(C)C)n4)c(C)c23)C1 (racemic) [Compound 27, rac-6-(1-Isopropyl-1H-pyrazol-3-yl)-4-(3-methoxy-3-(methoxymethyl)pyrrolidin-1-yl)-5-methyl-2-(1-methyl-1H-imidazol-2-yl)thieno[2,3-d]pyrimidine]",76 to 100,76 to 100,Y,Y
